Measured values taken from the supplement of paper PMC10307832.

Assays:
Assay in all cases: relative viability (nuclei count vs DMSO), 5 days (fraction); higher = more cells survive
[1] = compound: CC1(C)CNc2cc(NC(=O)c3cccnc3NCc3ccncc3)ccc21 [Motesanib] + CS(=O)(=O)CCNCc1ccc(-c2ccc3ncnc(Nc4ccc(OCc5cccc(F)c5)c(Cl)c4)c3c2)o1 [Lapatinib] (partner 2 µM)
In short: (§1)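 Lung cancer cell lines in 1536-well plates got either a single drug or a fixed anchor-drug dose together with five library-drug doses (not always all listed) in √10 steps, by pin tool, on the day after seeding. Nuclei were counted after 5 days, and relative viability is the treated-to-vehicle ratio of nuclei counts. Values are medians of duplicate plates.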

[2] = compound: CC1(C)CNc2cc(NC(=O)c3cccnc3NCc3ccncc3)ccc21 [Motesanib] + O=C(c1cc(Cc2n[nH]c(=O)c3ccccc23)ccc1F)N1CCN(C(=O)C2CC2)CC1 [Olaparib] (partner 8 µM)
In short: as §1

[3] = compound: C[C@@]1(C(=O)Nc2ccc(F)nc2)CCCN1c1nc(Nc2cc(C3CC3)n[nH]2)c2cccn2n1 + Cc1cc(Nc2cc(N3CCN(C)CC3)nc(Sc3ccc(NC(=O)C4CC4)cc3)n2)n[nH]1 [Tozasertib] (partner 0.1 µM)
In short: as §1

[4] = compound: C[C@@]1(C(=O)Nc2ccc(F)nc2)CCCN1c1nc(Nc2cc(C3CC3)n[nH]2)c2cccn2n1 + Nc1ncn([C@H]2C[C@H](O)[C@@H](CO)O2)c(=O)n1 [Decitabine] (partner 2 µM)
In short: as §1

Row | Cell Line | relative viability ([1]; first compound 0.01 µM) | relative viability ([1]; first compound 0.03162 µM) | relative viability ([1]; first compound 0.1 µM) | relative viability ([1]; first compound 0.3162 µM) | relative viability ([1]; first compound 1 µM) | relative viability ([2]; first compound 0.01 µM) | relative viability ([2]; first compound 0.03162 µM) | relative viability ([2]; first compound 0.1 µM) | relative viability ([2]; first compound 0.3162 µM) | relative viability ([2]; first compound 1 µM) | relative viability ([3]; first compound 0.04 µM) | relative viability ([3]; first compound 0.1265 µM) | relative viability ([3]; first compound 0.4 µM) | relative viability ([3]; first compound 1.265 µM) | relative viability ([4]; first compound 0.04 µM) | relative viability ([4]; first compound 0.1265 µM) | relative viability ([4]; first compound 0.4 µM) | relative viability ([4]; first compound 1.265 µM)
1 | HCC-366 | 0.913 | 1.08 | 1.06 | 1.13 | 1.06 | 0.278 | 0.375 | 0.403 | 0.352 | 0.397 | 0.677 | 0.102 | 0.0503 | 0.637 | 0.315 | 0.292 | 0.265 | 0.265
2 | HCC-827 | 0.198 | 0.191 | 0.172 | 0.224 | 0.192 | 0.616 | 0.746 | 0.652 | 0.713 | 0.548 | 0.443 | 0.491 | 0.373 | 0.42 | 0.295 | 0.312 | 0.351 | 0.305
3 | HOP-62 | 0.968 | 0.97 | 0.957 | 1.33 | 1.09 | 0.47 | 0.38 | 0.389 | 0.564 | 0.616 | 0.371 | 0.393 | 0.298 | 0.337 | 0.181 | 0.203 | 0.224 | 0.173
4 | IA-LM | 0.88 | 0.723 | 0.703 | 0.645 | 0.729 | 0.757 | 0.834 | 0.722 | 0.855 | 0.822 | – | – | – | – | – | – | – | –
5 | LC-2-ad | 0.947 | 0.921 | 0.999 | 1.1 | 0.843 | 0.689 | 0.709 | 0.816 | 0.733 | 0.785 | 0.403 | 0.393 | 0.288 | 0.296 | 0.82 | 0.73 | 0.66 | 0.606
6 | LCLC-97TM1 | 1.04 | 0.96 | 0.688 | 1.09 | 0.967 | 0.373 | 0.414 | 0.501 | 0.476 | 0.287 | 0.122 | 0.103 | 0.0881 | 0.126 | 0.228 | 0.131 | 0.111 | 0.271
7 | LCLC-103H | – | – | – | – | – | 0.777 | 0.737 | 0.758 | 0.807 | 0.742 | 0.474 | 0.472 | 0.394 | 0.473 | 0.745 | 0.661 | 0.71 | 0.712
8 | LK-2 | 0.784 | 1.19 | 0.78 | 1.04 | 0.901 | 0.644 | 0.94 | 0.608 | 0.817 | 0.756 | 0.178 | 0.169 | 0.187 | 0.175 | – | 0.171 | 0.18 | 0.162
9 | LOU-NH91 | 0.724 | 0.771 | 0.752 | 0.754 | 0.765 | 0.925 | 0.98 | 0.88 | 0.943 | 0.959 | 0.641 | 0.635 | 0.56 | 0.447 | 0.774 | 0.874 | 0.744 | 0.771
10 | LU99A | 1.03 | 1.2 | 0.94 | 1.03 | 0.883 | 0.284 | 0.268 | 0.271 | 0.255 | 0.263 | 0.237 | 0.222 | 0.234 | 0.182 | 0.764 | 0.585 | 0.527 | 0.738
11 | LXF-289 | 0.893 | 0.867 | 0.909 | 1 | 0.949 | 1.04 | 0.992 | 0.926 | 1.21 | 1.12 | 0.167 | 0.121 | 0.14 | 0.14 | 0.361 | 0.385 | 0.394 | 0.383
12 | NCI-H23 | 1.14 | 0.864 | – | 1.13 | 1.11 | 0.354 | 0.299 | 0.308 | 0.281 | 0.348 | 0.382 | 0.269 | 0.316 | 0.516 | 0.274 | 0.253 | 0.258 | 0.271
13 | NCI-H441 | – | – | – | – | – | 0.542 | 0.452 | 0.436 | 0.627 | 0.496 | 0.496 | 0.403 | 0.349 | 0.369 | 0.24 | 0.213 | 0.23 | 0.223
14 | NCI-H522 | – | – | – | – | – | 0.691 | 0.674 | 0.594 | 0.677 | 0.876 | 0.571 | 0.459 | 0.537 | 0.562 | 0.616 | 0.607 | 0.591 | 0.639
15 | NCI-H1299 | 0.958 | 0.979 | 0.995 | 1.01 | 0.935 | 0.938 | 0.973 | 1.03 | 1.02 | 0.898 | – | – | – | – | – | – | – | –
16 | NCI-H1563 | 0.9 | 0.991 | 1.08 | 0.923 | 0.951 | – | – | – | – | – | – | – | – | – | – | – | – | –
17 | NCI-H1623 | – | – | – | – | – | – | – | – | – | – | 0.391 | 0.397 | 0.349 | 0.371 | – | – | – | –
18 | NCI-H1648 | – | – | – | – | – | 0.563 | – | – | 1.1 | 1.06 | 0.449 | – | – | 0.336 | 0.465 | 0.464 | 0.416 | 0.361
19 | NCI-H1703 | 1.05 | 0.679 | 0.526 | 0.334 | 0.323 | 0.442 | 0.305 | 0.318 | 0.223 | 0.232 | – | – | – | – | – | – | – | –
20 | NCI-H1792 | 0.881 | 0.854 | 0.843 | 0.926 | 0.945 | 0.544 | 0.444 | 0.491 | 0.444 | 0.486 | – | – | – | – | 0.401 | 0.235 | 0.249 | 0.304
21 | NCI-H2228 | 0.902 | 1.13 | 0.848 | 1.24 | 1.08 | 0.794 | 0.74 | 0.668 | 0.838 | 0.749 | 0.258 | 0.248 | 0.235 | 0.178 | – | – | – | –
22 | NCI-H2342 | – | – | – | – | – | 0.472 | 0.569 | 0.403 | 0.469 | 0.463 | 0.534 | 0.453 | 0.346 | 0.499 | 0.685 | 0.636 | 0.559 | 0.671
23 | SW 900 | – | – | – | – | – | 0.904 | 0.677 | 0.811 | 0.9 | 0.917 | 0.525 | 0.551 | 0.464 | 0.29 | 0.403 | 0.437 | 0.351 | 0.349
